Drawing on patent US9643970B2, “Substituted imidazo [1,5-a]pyrazines as PDE9 inhibitors” (H Lundbeck A/S, priority 2012, dated 2017), this text covers IC50 for 35 compounds.

Sequence of PDE9 (O76083 whole entry): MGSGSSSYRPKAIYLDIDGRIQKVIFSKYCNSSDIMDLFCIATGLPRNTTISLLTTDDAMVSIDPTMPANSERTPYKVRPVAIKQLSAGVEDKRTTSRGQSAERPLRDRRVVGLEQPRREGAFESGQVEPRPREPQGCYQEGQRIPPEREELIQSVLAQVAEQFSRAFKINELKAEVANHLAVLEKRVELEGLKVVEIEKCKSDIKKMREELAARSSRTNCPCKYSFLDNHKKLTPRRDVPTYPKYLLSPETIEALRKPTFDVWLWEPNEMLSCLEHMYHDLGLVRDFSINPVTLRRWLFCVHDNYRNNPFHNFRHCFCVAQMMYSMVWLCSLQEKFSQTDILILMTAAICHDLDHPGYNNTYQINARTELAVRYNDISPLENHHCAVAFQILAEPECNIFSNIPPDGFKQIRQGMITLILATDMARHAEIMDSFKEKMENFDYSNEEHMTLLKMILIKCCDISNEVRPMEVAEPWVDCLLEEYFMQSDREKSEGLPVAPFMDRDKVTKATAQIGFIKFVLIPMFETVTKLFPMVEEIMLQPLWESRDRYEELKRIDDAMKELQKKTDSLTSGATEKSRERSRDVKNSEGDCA

One experiment has as its target PDE9 (Homo sapiens, UniProt O76083). In words: PDE9 inhibition assay. In kind it is biochemical.
Settings: not given
The procedure: Reactions are initiated by addition of the cyclic nucleotide substrate, and reactions are allowed to proceed for one hr at room temperature before being terminated through mixing with 15 uL 8 mg/mL yttrium silicate SPA beads (Amersham). […] IC50 values were calculated by non linear regression using XLfit (IDBS).
Regarding `Cc1cc(C)nc(OC2CN(Cc3cn4c(-c5ccccc5)ncc4c(=O)[nH]3)C2)n1` [Compound 14, 6-[[3-(4,6-dimethylpyrimidin-2-yl)oxyazetidin-1-yl]methyl]-3-phenyl-7h-imidazo[1,5-a]pyrazin-8-one], the IC50 (usually the midpoint of a concentration-inhibition curve) was determined as 50 nM.

As for `CC(c1cn2c(C3CCCC3)ncc2c(=O)[nH]1)N1CC(c2ccc(N(C)C)cc2)C1` (centres unmarked) [Compound 59, 3-cyclopentyl-6-[1-[3-(4-dimethylaminophenyl)azetidin-1-yl]ethyl]-7h-imidazo[1,5-a]pyrazin-8-one], the IC50 turned out to be 57 nM.

`CCc1ccc(C2CN(Cc3cn4c(-c5ccccc5)ncc4c(=O)[nH]3)C2)cc1` [Compound 11, 6-[[3-(4-ethylphenyl)azetidin-1-yl]methyl]-3-phenyl-7h-imidazo[1,5-a]pyrazin-8-one] returned an IC50 of 127 nM.

The compound `CC(c1cn2c(-c3ccccc3)ncc2c(=O)[nH]1)N1CC(Oc2ccccc2)C1` (centres unmarked) [Compound 25, 6-[1-(3-phenoxyazetidin-1-yl)ethyl]-3-phenyl-7h-imidazo[1,5-a]pyrazin-8-one] registered an IC50 of 28 nM.

Consider `CC(C)OC1CN(Cc2cn3c(C4CCCC4)ncc3c(=O)[nH]2)C1` [Compound 57, 3-cyclopentyl-6-[(3-isopropoxyazetidin-1-yl)methyl]-7h-imidazo[1,5-a]pyrazin-8-one], for which the IC50 was determined as 17 nM.

In turn, `O=c1[nH]c(CN2CC(c3ccc(C(F)(F)F)cn3)C2)cn2c(C3CCOCC3)ncc12` [Compound 70, 3-tetrahydropyran-4-yl-6-[[3-[5-(trifluoromethyl)-2-pyridyl]azetidin-1-yl]methyl]-7h-imidazo[1,5-a]pyrazin-8-one] registered an IC50 of 10 nM.

`N#Cc1cccc(OC2CN(Cc3cn4c(C5CCOCC5)ncc4c(=O)[nH]3)C2)c1` [Compound 94, 3-[1-[(8-oxo-3-tetrahydropyran-4-yl-7h-imidazo[1,5-a]pyrazin-6-yl)methyl]azetidin-3-yl]oxybenzonitrile] showed an IC50 of 12 nM.

For `CC(c1cn2c(-c3ccccc3)ncc2c(=O)[nH]1)N1CC(c2ccccc2)C1` (centres unmarked) [Compound 18, 3-phenyl-6-[1-(3-phenylazetidin-1-yl)ethyl]-7h-imidazo[1,5-a]pyrazin-8-one], the half-inhibitory concentration (IC50) turned out to be 54 nM.

On to `O=c1[nH]c(CN2CC(Oc3ncccn3)C2)cn2c(-c3ccccc3)ncc12` [Compound 5, 3-phenyl-6-[(3-pyrimidin-2-yloxyazetidin-1-yl)methyl]-7h-imidazo[1,5-a]pyrazin-8-one], for which inhibition was half-maximal at 30 nM (IC50).

`N#Cc1ccc(OC2CN(Cc3cn4c(-c5ccc(F)cc5)ncc4c(=O)[nH]3)C2)cc1` [Compound 92, 4-[1-[[3-(4-fluorophenyl)-8-oxo-7h-imidazo[1,5-a]pyrazin-6-yl]methyl]azetidin-3-yl]oxybenzonitrile]: the IC50 stood at 76 nM.

With `O=c1[nH]c(CN2CC(Oc3cnccn3)C2)cn2c(-c3ccccc3)ncc12` [Compound 4, 3-phenyl-6-[(3-pyrazin-2-yloxyazetidin-1-yl)methyl]-7h-imidazo[1,5-a]pyrazin-8-one], the IC50 came out at 32 nM.

Compound `N#Cc1ccc(C2CN(Cc3cn4c(-c5ccc(F)cc5)ncc4c(=O)[nH]3)C2)cc1` [Compound 96, 4-[1-[[3-(4-fluorophenyl)-8-oxo-7h-imidazo[1,5-a]pyrazin-6-yl]methyl]azetidin-3-yl]benzonitrile] displayed an IC50 of 2 nM.

The experiment is the same for the next values; noted with them: SPA assay, 10 nM 3H-cAMP, 1 hour incubation; read-out: IC50.
For `CN(C)c1ccc(C2CN(Cc3cn4c(C5CCCC5)ncc4c(=O)[nH]3)C2)cc1` [Compound 48, 3-cyclopentyl-6-[[3-(4-dimethylaminophenyl)azetidin-1-yl]methyl]-7h-imidazo[1,5-a]pyrazin-8-one], the IC50 is 40 nM.

`N#Cc1cccc(C2CN(Cc3cn4c(C5CCOCC5)ncc4c(=O)[nH]3)C2)c1` [Compound 107, 3-[1-[(8-oxo-3-tetrahydropyran-4-yl-7h-imidazo[1,5-a]pyrazin-6-yl)methyl]azetidin-3-yl]benzonitrile]: the IC50 is 35 nM.

In the case of `CC(c1cn2c(C3CCCC3)ncc2c(=O)[nH]1)N1CC(Oc2ccccc2F)C1` (centres unmarked) [Compound 52, 3-cyclopentyl-6-[1-[3-(2-fluorophenoxy)azetidin-1-yl]ethyl]-7h-imidazo[1,5-a]pyrazin-8-one], the IC50 was 49 nM.

With `O=c1[nH]c(CN2CC(c3ccccn3)C2)cn2c(-c3ccccc3)ncc12` [Compound 37, 3-phenyl-6-[[3-(2-pyridyl)azetidin-1-yl]methyl]-7h-imidazo[1,5-a]pyrazin-8-one], the IC50 turned out to be 29 nM.

In the case of `O=c1[nH]c(CN2CC(Oc3cnccn3)C2)cn2c(-c3ccc(F)cc3)ncc12` [Compound 55, 3-(4-fluorophenyl)-6-[(3-pyrazin-2-yloxyazetidin-1-yl)methyl]-7h-imidazo[1,5-a]pyrazin-8-one], the half-inhibitory concentration (IC50) was found to be 9 nM.

For `COC1CN(Cc2cn3c(-c4ccccc4)ncc3c(=O)[nH]2)C1` [Compound 3, 6-[(3-methoxyazetidin-1-yl)methyl]-3-phenyl-7h-imidazo[1,5-a]pyrazin-8-one], the IC50 was found to be 90 nM.

`O=c1[nH]c(CN2CC(OCc3ccccc3)C2)cn2c(-c3ccc(F)cc3)ncc12` [Compound 45, 6-[(3-benzyloxyazetidin-1-yl)methyl]-3-(4-fluorophenyl)-7h-imidazo[1,5-a]pyrazin-8-one]: the IC50 worked out at 1 nM.

For the compound `CC(c1cn2c(-c3ccccc3)ncc2c(=O)[nH]1)N1CC(c2ccc(C#N)cc2)C1` (centres unmarked) [Compound 38, 4-[1-[1-(8-oxo-3-phenyl-7h-imidazo[1,5-a]pyrazin-6-yl)ethyl]azetidin-3-yl]benzonitrile], the IC50 worked out at 23 nM.

Consider `CC1CN(Cc2ccc(F)cc2)CC1c1cn2c(-c3ccc(F)cc3)ncc2c(=O)[nH]1` (centres unmarked) [Compound 99, 3-(4-fluorophenyl)-6-[1-[(4-fluorophenyl)methyl]-4-methyl-pyrrolidin-3-yl]-7h-imidazo[1,5-a]pyrazin-8-one], for which the IC50 amounted to 17 nM.

Regarding `O=c1[nH]c(CN2CC(Oc3ncccn3)C2)cn2c(C3CCCC3)ncc12` [Compound 39, 3-cyclopentyl-6-[(3-pyrimidin-2-yloxyazetidin-1-yl)methyl]-7h-imidazo[1,5-a]pyrazin-8-one], the IC50 was found to be 22 nM.

As to `O=c1[nH]c(CN2CC(Oc3c(F)cccc3F)C2)cn2c(-c3ccc(F)cc3)ncc12` [Compound 121, 6-[[3-(2,6-difluorophenoxy)azetidin-1-yl]methyl]-3-(4-fluorophenyl)-7h-imidazo[1,5-a]pyrazin-8-one], the IC50 was found to be 41 nM.

For `CC(c1cn2c(C3CCCC3)ncc2c(=O)[nH]1)N1CC(c2ccc(F)cc2)C1` (centres unmarked) [Compound 40, 3-cyclopentyl-6-[1-[3-(4-fluorophenyl)azetidin-1-yl]ethyl]-7h-imidazo[1,5-a]pyrazin-8-one], the IC50 worked out at 5 nM.

As for `Cc1cnc(CN2CC(C)C(c3cn4c(C5CCOCC5)ncc4c(=O)[nH]3)C2)cn1` (centres unmarked) [Compound 102, 6-[4-methyl-1-[(5-methylpyrazin-2-yl)methyl]pyrrolidin-3-yl]-3-tetrahydropyran-4-yl-7h-imidazo[1,5-a]pyrazin-8-one], the IC50 is 10 nM.

For `Cc1nc2ccccc2nc1OC1CN(Cc2cn3c(C4CCCC4)ncc3c(=O)[nH]2)C1` [Compound 46, 3-cyclopentyl-6-[[3-(3-methylquinoxalin-2-yl)oxyazetidin-1-yl]methyl]-7h-imidazo[1,5-a]pyrazin-8-one], the IC50 is 6 nM.

As to `N#Cc1ccc(OC2CN(Cc3cn4c(C5CCOCC5)ncc4c(=O)[nH]3)C2)cc1` [Compound 80, 4-[1-[(8-oxo-3-tetrahydropyran-4-yl-7h-imidazo[1,5-a]pyrazin-6-yl)methyl]azetidin-3-yl]oxybenzonitrile], the IC50 was 18 nM.

Regarding `O=c1[nH]c(CN2CCC(Nc3ccccc3)C2)cn2c(-c3ccccc3)ncc12` (centres unmarked) [Compound 17, 6-[(3-anilinopyrrolidin-1-yl)methyl]-3-phenyl-7h-imidazo[1,5-a]pyrazin-8-one], the half-inhibitory concentration (IC50) was 28 nM.

As for `O=c1[nH]c(CN2CC(Oc3ccc(C(F)(F)F)cc3)C2)cn2c(-c3ccc(F)cc3)ncc12` [Compound 109, 3-(4-fluorophenyl)-6-[[3-[4-(trifluoromethyl)phenoxy]azetidin-1-yl]methyl]-7h-imidazo[1,5-a]pyrazin-8-one], the IC50 turned out to be 28 nM.

On to `CC1CN(Cc2ccc(F)cc2)CC1c1cn2c(-c3ccc(F)cc3)nc(Br)c2c(=O)[nH]1` (centres unmarked) [Compound 100, 1-bromo-3-(4-fluorophenyl)-6-[1-[(4-fluorophenyl)methyl]-4-methyl-pyrrolidin-3-yl]-7h-imidazo[1,5-a]pyrazin-8-one], for which the IC50 was found to be 4 nM.

For `CC(c1cn2c(-c3ccccc3)ncc2c(=O)[nH]1)N1CC(Oc2cccc(F)c2)C1` (centres unmarked) [Compound 24, 6-[1-[3-(3-fluorophenoxy)azetidin-1-yl]ethyl]-3-phenyl-7h-imidazo[1,5-a]pyrazin-8-one], the 50% inhibitory concentration (IC50) is 25 nM.

`CC(c1cn2c(C3CCCC3)ncc2c(=O)[nH]1)N1CC(Oc2ncccn2)C1` (centres unmarked) [Compound 42, 3-cyclopentyl-6-[1-(3-pyrimidin-2-yloxyazetidin-1-yl)ethyl]-7h-imidazo[1,5-a]pyrazin-8-one]: the IC50 was determined as 8 nM.

For the compound `O=c1[nH]c(CN2CC(Oc3ccccc3)C2)cn2c(-c3ccccc3)ncc12` [Compound 21, 6-[(3-phenoxyazetidin-1-yl)methyl]-3-phenyl-7h-imidazo[1,5-a]pyrazin-8-one], the IC50 is 8 nM.

In the case of `O=c1[nH]c(CN2CC(Oc3cccc(F)n3)C2)cn2c(-c3ccccc3)ncc12` [Compound 6, 6-[[3-[(6-fluoro-2-pyridyl)oxy]azetidin-1-yl]methyl]-3-phenyl-7h-imidazo[1,5-a]pyrazin-8-one], the IC50 turned out to be 31 nM.

With `COc1ccc(C2CN(Cc3cn4c(C5CCCC5)ncc4c(=O)[nH]3)C2)cc1` [Compound 41, 3-cyclopentyl-6-[[3-(4-methoxyphenyl)azetidin-1-yl]methyl]-7h-imidazo[1,5-a]pyrazin-8-one], the IC50 amounted to 26 nM.
